Drawing on US7351737B2, “4-[(8-substituted)-6-chromanoyl]-and 4-[8-substituted)-chroman-6-YL-ethynyl]-benzoic and phenylacetic acids, their esters and salts having cytochrome P450RAI inhibitory activity” (Allergan, Inc., priority 2002, dated 2008), this text covers Kd and IC50 for ten compounds.

In one assay the target is T1, RARα (Homo sapiens, UniProt P10276).
T1 sequence (P10276 1-462): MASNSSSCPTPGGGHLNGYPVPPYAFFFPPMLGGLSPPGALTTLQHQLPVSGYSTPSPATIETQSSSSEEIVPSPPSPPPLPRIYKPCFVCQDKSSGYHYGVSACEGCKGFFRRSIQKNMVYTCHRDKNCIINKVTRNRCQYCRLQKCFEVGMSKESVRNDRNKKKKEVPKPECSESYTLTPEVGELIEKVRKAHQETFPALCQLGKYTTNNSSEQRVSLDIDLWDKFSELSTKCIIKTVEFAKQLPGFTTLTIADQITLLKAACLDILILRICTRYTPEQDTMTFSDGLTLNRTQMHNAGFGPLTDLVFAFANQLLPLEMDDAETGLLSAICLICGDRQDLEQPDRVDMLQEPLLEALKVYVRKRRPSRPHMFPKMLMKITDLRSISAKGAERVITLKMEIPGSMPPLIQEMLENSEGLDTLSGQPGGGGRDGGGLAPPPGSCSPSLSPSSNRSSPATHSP
The assay is described as follows: ligand binding assay, RARα. Conditions: last item of cell, read-out: RAR α Kd. The text has this:
Assays described below measure the ability of a compound to bind to, and/or activate various retinoid receptor subtypes. When in these assays a compound binds to a given receptor subtype and activates the transcription of a reporter gene through that subtype, then the compound is considered an agonist of that receptor subtype. […] In the below described assays the ability of the compounds to bind to RARα, RARβ, RARγ, RXRα, RXRβ and RXRγ receptors, and the ability or inability of the compounds to activate transcription of a reporter gene through these receptor subtypes can be tested.
A holoreceptor transactivation assay and a ligand binding assay which measure the antagonist/agonist like activity of the compounds of the invention, or their ability to bind to the several retinoid receptor subtypes, respectively, are described in published PCT Application No. WO WO93/11755 (particularly on pages 30-33 and 37-41) published on Jun. 24, 1993, the specification of which is also incorporated herein by reference. A detailed experimental procedure for holoreceptor transactivations has been described by Heyman et al. Cell 68, 397-406, (1992); Allegretto et al. J. Biol. Chem. 268, 26625-26633, and Mangelsdorf et al. The Retinoids: Biology, Chemistry and Medicine, pp 319-349, Raven Press Ltd., New York, which are expressly incorporated herein by reference. The results obtained in this assay are expressed in EC50 numbers, as they are also in the chimeric receptor transactivation assay. The results of ligand binding assay are expressed in Kd numbers. (See Cheng et al. Biochemical Pharmacology Vol. 22 pp 3099-3108, expressly incorporated herein by reference.)
The results of the ligand binding assay for several preferred compounds of the invention are included in Table 1.

The target of a further assay is T2, P450RAI-2 (Homo sapiens, UniProt Q9NR63).
T2 construct: expressed in transfected cells; host or cells: HeLa
T2 sequence (Q9NR63 1-512): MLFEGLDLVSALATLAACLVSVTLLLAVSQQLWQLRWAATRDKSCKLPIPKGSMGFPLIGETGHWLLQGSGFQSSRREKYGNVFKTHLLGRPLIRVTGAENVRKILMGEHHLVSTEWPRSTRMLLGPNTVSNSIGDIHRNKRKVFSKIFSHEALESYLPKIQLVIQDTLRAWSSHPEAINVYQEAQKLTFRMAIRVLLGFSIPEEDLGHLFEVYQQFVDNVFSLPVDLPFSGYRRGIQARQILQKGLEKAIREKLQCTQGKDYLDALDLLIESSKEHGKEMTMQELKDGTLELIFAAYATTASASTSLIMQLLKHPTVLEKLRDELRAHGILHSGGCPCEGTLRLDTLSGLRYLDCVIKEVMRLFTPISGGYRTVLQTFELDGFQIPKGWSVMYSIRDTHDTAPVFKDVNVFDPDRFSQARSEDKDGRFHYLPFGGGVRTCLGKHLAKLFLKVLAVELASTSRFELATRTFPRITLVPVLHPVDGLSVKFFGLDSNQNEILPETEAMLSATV
The assay is described as follows: P450RAI-2 cell-based inhibitor assay ([3H]-RA metabolism, intact cells). Conditions: P450RAI-2 stably transfected HeLa cells, 3 hours at 37° C., all-trans-RA metabolism; read-out: P450RAI INHIBITION DATA RAI-2 Intact Cells IC50. The procedure:
FIG. 1 is a schematic representation of the P450RAI cell based assay utilized to evaluate the ability of the compounds of the invention to inhibit the Cytochrome P450RAI enzyme.
P450RAI-1 and P450RAI-2 Cell-Based Inhibitor Assay:
P450RAI-1 stably transfected HeLa cells, or P450RAI-2 stably transfected HeLa cells, as applicable, are maintained in […] tissue culture dishes in Modified Eagle's Medium (MEM) containing 10% Fetal Bovine Serum (FBS) and 100 μg/ml hygromycin. Exponentially growing cells are harvested by incubating in trypsin. Cells are then washed with 1X Phosphate Buffered Saline (PBS) and plated in a 48-well plate at 5×10^5 cells in 0.2 ml MEM medium containing 10% FBS and 0.05 μCi [^3H]-RA in the presence or absence of increasing concentrations of the test compounds. The compounds are diluted in 100% DMSO and then added in triplicate wells at either 10, 1 or 0.1 μM final concentration. As a positive control for RA metabolism inhibition, cells are also incubated with ketoconazole at 100, 10 and 1 μM. Cells are incubated for 3 hours at 37° C. The retinoids are then extracted using the procedure of Bligh et al. (1959) Canadian Journal of Biochemistry 37, 911-917, modified by using methylenechloride instead of chloroform. The publication Bligh et al. (1959) Canadian Journal of Biochemistry 37, 911-917 is specifically incorporated herein by reference. The water soluble radioactivity is quantified using a β-scintillation counter. IC50 values represent the concentration of inhibitor required to inhibit all-trans-RA metabolism by 50 percent and are derived manually from log-transformed data.

A value given as a limit tells only on which side of the number the result lay.

As for `CC1(C)CC(C)(C)c2cc(C(=O)Oc3ccc(CC(=O)O)c(F)c3)cc(C#N)c2O1` [Compound 32, 8-Cyano-2,2,4,4-tetramethyl-chroman-6-carboxylic acid-4-carboxymethyl-3-fluoro-phenyl ester], the Kd (in general, a measure of binding affinity in units of concentration) at RARα is > 10000 nM. Besides, the IC50 (in general, the midpoint of a concentration-inhibition curve) at P450RAI-2 came to 900 nM.
For `C#Cc1cc(C(=O)Oc2ccc(CC(=O)O)cc2)cc2c1OC(C)(C)CC2(C)C` [Compound 1, 8-Ethynyl-2,2,4,4-tetramethyl-chroman-6-carboxylic acid 4-carboxymethyl-phenyl ester], in that order: > 10000 nM and 14 nM.
In the case of `C#Cc1cc(C(=O)Oc2ccc(CC(=O)OCOC(C)=O)c(F)c2)cc2c1OC(C)(C)CC2(C)C` [Compound 5, 8-Ethynyl-2,2,4,4-tetramethyl-chroman-6-carboxylic acid 4-acetoxymethoxycarbonylmethyl-3-fluoro-phenyl ester], the equilibrium dissociation constant (Kd) at RARα was 4680 nM. Moreover, the IC50 on P450RAI-2 turned out to be 30 nM.
For `C#CCc1cc(C#Cc2ccc(CC(=O)O)cc2)cc2c1OC(C)(C)CC2(C)C` [Compound 49], in that order: 7240 nM and 120 nM.
For `C#Cc1cc(C#Cc2ccc(CC(=O)O)c(F)c2)cc2c1OC(C)(C)CC2(C)C` [Compound 41, [4-(8-Ethynyl-2,2,4,4-tetramethyl-chroman-6-ylethynyl)-2-fluoro-phenyl]-acetic acid], in that order: > 10000 nM and 4 nM.
For `C#Cc1cc(C(=O)Oc2ccc(CC(=O)OCOC(C)=O)cc2)cc2c1OC(C)(C)CC2(C)C` [Compound 3, 8-Ethynyl-2,2,4,4-tetramethyl-chroman-6-carboxylic acid 4-acetoxymethoxycarbonylmethyl-phenyl ester], the Kd on RARα was > 10000 nM. Also, on P450RAI-2, the IC50 came out at 80 nM.
For `C#Cc1cc(C(=O)Oc2ccc(CC(=O)OCC)cc2)cc2c1OC(C)(C)CC2(C)C` [Compound 2, 8-Ethynyl-2,2,4,4-tetramethyl-chroman-6-carboxylic acid 4-ethoxycarbonylmethyl-phenyl ester] the same measures were > 10000 nM and 6000 nM.
For `C#Cc1cc(C#Cc2ccc(CC(=O)O)cc2)cc2c1OC(C)(C)CC2(C)C` [Compound 40, [4-(8-Ethynyl-2,2,4,4-tetramethyl-chroman-6-ylethynyl)-phenyl]-acetic acid], in that order: > 10000 nM and 7 nM.
Take `CC(=O)OCOC(=O)Cc1ccc(OC(=O)c2cc(C#N)c3c(c2)C(C)(C)CC(C)(C)O3)cc1F` [Compound 33, 8-Cyano-2,2,4,4-tetramethyl-chroman-6-carboxylic acid 4-acetoxymethoxycarbonylmethyl-3-fluoro-phenyl ester]: the dissociation constant Kd at RARα was > 10000 nM. Also, on P450RAI-2, the IC50 was determined as 700 nM.
For `C#Cc1cc(C(=O)Oc2ccc(CC(=O)O)c(F)c2)cc2c1OC(C)(C)CC2(C)C` [Compound 4, 8-Ethynyl-2,2,4,4-tetramethyl-chroman-6-carboxylic acid-4-carboxymethyl-3-fluoro-phenyl ester] the same measures were 3470 nM and 60 nM.
